From patent US8012995B1, “Pharmaceutically active sulfonamide derivatives” (Merck Serono SA, priority 1999, dated 2011)

Columns and labels:
JNK2 = JNK2 (Homo sapiens, UniProt P45984); test: JNK2 in vitro assay (SPA, GST-c-Jun phosphorylation); assay type: biochemical; conditions: amount necessary to achieve 50% inhibition, GST-c-Jun substrate
Protocol: (§1) JNK 2 and 3 in vitro assays: JNK3 and/or 2 assays are performed in 96 well MTT plates, by incubation of 0.5 μg of recombinant pre-activated GST-JNK or GST-JNK2 with 1 μg of recombinant, biotinylated GST-c-Jun and 2 μM ^33γ-ATP (2 nCi/μl), in the to presence or absence of sulfonamide inhibitors if formula I and in a reaction volume of 50 μl containing 50 mM Tris-HCl, pH 8.0; 10 mM MgCl2; 1 mM Dithiothreitol, and 100 μM NaVO4. The incubation is performed for 120 min. at R.T and stopped upon addition of 200 μl of a solution containing 250 μg of Streptavidine-coated SPA beads (Amersham, Inc.)^•, 5 mM EDTA, 0.1% Triton X-100 and 50 μM ATP, in phosphate saline buffer. After incubation for 60 minutes at RT, beads are sedimented by centrifugation at 1500×g for 5 minutes, resuspended in 200 μl of PBS containing 5 mM EDTA, 0.1% Triton X-100 and 50 μM ATP and the radioactivity measured in a scintillation β counter, following sedimentation of the beads as described above. By substituting GST-c Jun for biotinylated GST-1ATF2 or myelin basic protein, this assay can be used to measure inhibition of preactivated p38 and ERK MAP Kinases, respectively.
(§2) The values indicated in respect of JNK2 and 3, p38 and ERK2 refer to the IC50 (μM), i.e. the amount necessary to achieve 50% inhibition of said target (e.g. JNK2). From the above table it could be derived that said test compounds according to formula I do have a significant effect both on JNK2 and 3, but virtually no effect onto p38 and ERK2, thus delivering a quite selective inhibitory effect.

JNK3 = JNK3 (Homo sapiens, UniProt P53779); test: JNK3 in vitro assay (SPA, GST-c-Jun phosphorylation); assay type: biochemical; conditions: amount necessary to achieve 50% inhibition, GST-c-Jun substrate
Sequence of JNK3 (P53779 whole entry, species assumed): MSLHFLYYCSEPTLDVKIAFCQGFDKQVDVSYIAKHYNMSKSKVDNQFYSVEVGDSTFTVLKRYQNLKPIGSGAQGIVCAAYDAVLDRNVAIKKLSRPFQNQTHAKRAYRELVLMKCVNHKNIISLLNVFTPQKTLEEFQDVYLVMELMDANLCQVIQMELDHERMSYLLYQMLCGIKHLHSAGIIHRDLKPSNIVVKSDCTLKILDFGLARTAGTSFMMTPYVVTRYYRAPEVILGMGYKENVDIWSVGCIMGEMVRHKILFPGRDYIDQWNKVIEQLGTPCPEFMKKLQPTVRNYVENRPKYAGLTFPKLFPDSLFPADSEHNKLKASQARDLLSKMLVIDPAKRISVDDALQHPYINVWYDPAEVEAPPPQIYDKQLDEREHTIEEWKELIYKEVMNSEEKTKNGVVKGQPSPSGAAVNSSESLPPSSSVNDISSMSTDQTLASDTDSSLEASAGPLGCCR
Protocol: as §1, §2

p38 = p38 (Homo sapiens, UniProt Q16539); test: p38 in vitro kinase assay (SPA, GST-ATF2 substrate); assay type: biochemical; conditions: amount necessary to achieve 50% inhibition
Sequence of p38 (Q16539 whole entry): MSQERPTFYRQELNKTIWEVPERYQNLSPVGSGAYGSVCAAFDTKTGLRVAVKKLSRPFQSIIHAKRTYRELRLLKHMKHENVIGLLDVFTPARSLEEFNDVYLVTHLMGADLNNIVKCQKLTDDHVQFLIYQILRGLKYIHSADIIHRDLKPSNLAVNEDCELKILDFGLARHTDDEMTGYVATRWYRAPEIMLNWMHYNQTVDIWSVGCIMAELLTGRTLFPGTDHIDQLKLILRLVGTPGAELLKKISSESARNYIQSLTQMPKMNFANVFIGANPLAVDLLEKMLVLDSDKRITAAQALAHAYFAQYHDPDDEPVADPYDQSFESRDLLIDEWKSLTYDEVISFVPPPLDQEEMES
Protocol: as §1, §2

ERK2 = ERK2 (Homo sapiens, UniProt P28482); test: ERK2 in vitro kinase assay (SPA, myelin basic protein substrate); assay type: biochemical; conditions: amount necessary to achieve 50% inhibition
Sequence of ERK2 (P28482 whole entry, species assumed): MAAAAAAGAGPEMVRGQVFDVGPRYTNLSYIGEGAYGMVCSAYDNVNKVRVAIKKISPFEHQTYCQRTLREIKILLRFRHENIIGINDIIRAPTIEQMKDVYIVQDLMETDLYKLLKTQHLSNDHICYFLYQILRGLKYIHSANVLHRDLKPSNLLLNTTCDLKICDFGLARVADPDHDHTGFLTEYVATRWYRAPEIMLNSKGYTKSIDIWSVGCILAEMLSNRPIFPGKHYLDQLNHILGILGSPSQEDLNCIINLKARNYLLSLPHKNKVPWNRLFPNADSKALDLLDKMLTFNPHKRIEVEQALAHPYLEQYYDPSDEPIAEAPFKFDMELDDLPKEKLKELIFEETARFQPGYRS
Protocol: as §1, §2

[1] = test system: IL-2 release by PMA+Iono-stimulated Jurkat cells; test: IL-2 release assay (ELISA); assay type: cell-based; conditions: Homo sapiens, PMA+Ionomycine-stimulated Jurkat cells, 24 hours, read-out: % Inhibition of IL2 Production @3 uM
Protocol: Jurkat cells, a human T cell leukemia cell line (American Type Culture Collection # TIB 152) were cultured in RPMI 1640 medium (Gibco, BRL) supplemented with 10% of […] FCS, Glutamine and Penstrep. The cell suspension in the medium is diluted to give 2.10^6 cells/mL. The cells were plated (2.10^5 cells/well) on a 96-well plate containing different concentration of test compound (final concentration of compounds, 10, 3, 1, […], 0.1 μM). This mixture is incubated 30 minutes at 37° C. in a humidified CO2 atmosphere. Cells were then treated with 10 ul PMA+Ionomycine (0.1 μM and 1 μM final concentration) in all wells except negative control. In wells without compounds, 10 μl of RPMI 2% DMSO (=0.1% final) is added. Cells are incubated 24 hours at 37° C. and then the supernatant harvested (freeze at −20° C. if not used the same day) prior to performing IL-2 ELISA test on the supernatant.
IL-2 release into the medium by PMA+Iono-stimulated Jurkat cells, in presence or absence of test compounds is assayed by ELISA. Following the procedure described below
Transfer 100 μl capture antibody diluted in PBS at 5 μg/mL into a 96 well ELISA plate and incubate overnight at room temperature.
Aspirate each well and wash 3 times with Wash buffer. After the last wash, damp the plate.
1. Saturate with 200 μl PBS-10% FCS. Incubate 1 hour at room temperature.
2. Repeat the wash step 2.
• 1. Add 100 μl of sample or standard ([…]) and incubate 2 hours at room temperature. • 2. Wash 3 times. • 3. Add 100 μl of biotinylated anti-human IL-2 at 12.5 ng/mL. Incubate 2 hours at room temperature. • 4. Wash 3 times. • 5. Add 100 μl streptavidin-HRP (Zymed #43-4323) at 1:10′000. Incubate 30 minutes at room temperature. • 6. Wash 3 times • 7. Add 100 μl substrate solution (citric acid/Na2HPO4 (1:1)+H2O2 1:2000+OPD). Incubate 20-30 minutes at room temperature. • 8. Add 50 μl of stop solution to each well. • 9. Determine optical density using a microliter plate reader set to 450 nm with correction at 570 nm.

Hlr c-Jun HeLa cells = test: C-Jun reporter assay (Dual-Luciferase); assay type: cell-based; conditions: Homo sapiens, Hlr c-Jun HeLa cells transfected with pMEKK1
Protocol: Hlr c-Jun HeLa cells are cultured in DMEM High Glc supplemented with 10% FCS (Sigma), 2 mM Glutamine (Gibco), P/S, Hygromycin b 100 μg/mL and G418 250 μg/mL
The cell suspension are diluted with medium to give about 3.5×10^6 cells/mL and 1 mL of cell suspension are put onto 2 10 cm culture dishes containing 9 mL of culture medium.
• Control: 0.2 μg pTK Renilla, 5.8 μg pBluescript KS, 500 μl OPTIMEM (GIBCO), 18 μl Fugene 6 • Induced: 0.1 μg pMEKK1, 0.2 μg pTK Renilla, 5.7 μg pBluescript KS, 500 μl OPTIMEM (GIBCO), 18 μl Fugene 6 30′ RT
The transfection mixture is added to the plated cells. The plates are incubated over night at 37° C. in a humidified atmosphere of 5% CO2 in air
A 96 wells plate containing 100 μl of culture medium per well is prepared
Negative control (vehicle): 2 μl of DMSO is added to the 100 μl (in triplicate).
Compound: 2 μl of Hit compound stock dilution are added to the 100 μl (in triplicate).
The transfected cells are trypsinised and ressuspend in 12 mL of culture medium.
100 μl of the dilution are added to each of the 96 wells plate.
The plate is incubated over night at 37° C. in a humidified atmosphere of 5% CO2 in air
Dual-Luciferase™ Reporter Assay System (Promega)
The medium is removed from the plate and the cells washed two times with 100 μl PBS Completely remove the rinse solution before applying PLB reagent. Dispense into each culture well […] of 1×PLB. Place the culture plates on a rocking platform or orbital shaker with gentle
rocking/shaking to ensure complete and even coverage of the cell monolayer with 1×PLB. Rock the culture plates at room temperature for 15 minutes. Transfer 20 μl of the lysate into a white opaque 96 wells plate. Read in a luminometer.
• Inject 50 μl of Luciferase Assay Reagent II wait 5″, read 10″ • Inject 50 μl of Stop & Glo® Reagent wait 5″, read 10″ Check RLU Luciferase/RLU Renilla *1000

Sequence of JNK2 (P45984 whole entry, species assumed): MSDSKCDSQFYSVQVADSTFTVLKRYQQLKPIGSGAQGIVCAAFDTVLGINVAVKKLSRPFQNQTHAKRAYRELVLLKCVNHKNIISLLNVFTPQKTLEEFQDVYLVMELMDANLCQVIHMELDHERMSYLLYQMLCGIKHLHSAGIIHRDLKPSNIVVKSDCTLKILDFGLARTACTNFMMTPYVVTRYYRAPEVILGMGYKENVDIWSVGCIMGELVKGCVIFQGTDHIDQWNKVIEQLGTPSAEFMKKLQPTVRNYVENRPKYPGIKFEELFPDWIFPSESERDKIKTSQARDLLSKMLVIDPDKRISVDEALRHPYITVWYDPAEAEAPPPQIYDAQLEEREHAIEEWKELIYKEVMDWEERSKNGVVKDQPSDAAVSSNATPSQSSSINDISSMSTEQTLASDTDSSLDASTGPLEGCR

melting point [°C] | IC50 (JNK2) [µM] | IC50 (JNK3) [µM] | IC50 (p38) [µM] | IC50 (ERK2) [µM] | Compound | inhibition at 3 µM [1] [%] | inhibition at 10 µM (Hlr c-Jun HeLa cells) [%]
198 to 199 | – | – | – | – | O=C(NCc1ccc(S(=O)(=O)N2CCC(Nc3cccc(S(=O)(=O)C(F)(F)F)c3)CC2)s1)c1ccc(Cl)cc1 [Example 2, 4-Chloro-N-{5-[4-(3-Trifluoromethanesulfonyl-phenylamino)-piperidine-1-sulfonyl]-thiophen-2-ylmethyl}-benzamide] | – | –
169 to 170 | 0.31 | 0.11 | > 30 | > 30 | CCCc1cccc(NC2CCN(S(=O)(=O)c3ccc(CNC(=O)c4ccc(Cl)cc4)s3)CC2)c1 [Example 110, 4-chloro-N-{[5-({4-[3-propylanilino]piperidin-1-yl}sulfonyl)thien-2-yl]methyl}benzamide] | > 30 | > 30
